US10987349B2, “Antitumor agent and bromodomain inhibitor” (FUJIFILM Corporation, priority 2016, dated 2021)

Legend:
BRD3 BD1 = target: T1, BRD3 BD1 (Homo sapiens, UniProt Q15059); assay: Binding assay, BRD3 BD1 to acetylated histone H4 Peptide-Biotin (EPIgeneous Binding Domain Kit A); details: for inhibition at 0.3 µM: test compound at 300 nmol/L, read-out: Binding inhibition percentage BRD3 BD1
T1 construct: BRD2 BD1, BRD3 BD1 and BRD4 BD1 (Cisbio); purchased Cisbio
Summary of the method: (§1)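 HTRF competition: bromodomain protein (added at 20 nmol/L) and biotinylated tetra-acetyl H4(1-25) peptide (added at 25 nmol/L) were incubated with compound, streptavidin-d2 and anti-GST Eu cryptate for 20 h at room temperature. Inhibition came from the 665/620 nm ratio relative to DMSO; IC50 by four-parameter fit; some compounds were tested only at 300 nmol/L final.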

BRD4 BD1 = target: T2, BRD4 BD1 (Homo sapiens, UniProt O60885); assay: Binding assay, BRD4 BD1 to acetylated histone H4 Peptide-Biotin (EPIgeneous Binding Domain Kit A); details: for inhibition at 0.3 µM: test compound at 300 nmol/L, read-out: Binding inhibition percentage BRD4 BD1
T2 construct: BRD2 BD1, BRD3 BD1 and BRD4 BD1 (Cisbio); purchased Cisbio
Summary of the method: as §1

[1] = test system: human acute myeloid leukemia cell line MV4-11; assay: Cell growth test (Cell Titer Glo) MV4-11; assay type: cell-based; details: 3 to 5 days
Source text: (§2) The human undifferentiated thymoma cell line Ty-82 (JCRB), the human acute myeloid leukemia cell lines MV4-11 (ATCC), MOLM-13 (ATCC) and RS4-11 (ATCC), the human lymphoma cell line Raji (JCRB), the human cervical epidermoid carcinoma cell line Hela (JCRB), the human lung adenocarcinoma cell line A549 (ATCC), the human colon cancer cell lines DLD1 (DS Pharma) and HCT116 (DS Pharma), and the human pancreatic cancer cell line MIAPACA-2 (ATCC) were used to carry out a cell growth test.
(§3) Ty-82, MV4-11, MOLM-13, RS4-11, Raji and DLD1 were each seeded in a well plate, in which Roswell Park Memorial Institute (RPMI)-1640 medium supplemented with penicillin/streptomycin and fetal bovine serum (FBS) with a final concentration of 10% was placed. Hela was seeded in Dulbecco's Modified Eagle's medium (DMEM) supplemented with penicillin/streptomycin and FBS with a final concentration of 10%. A549 and MIAPACA-2 were each seeded in a well plate, in which Minimum Essential Medium (MEM) supplemented with penicillin/streptomycin and FBS with a final concentration of 10% was placed. HCT116 was seeded in a well plate, in which McCoy's 5A medium supplemented with penicillin/streptomycin and FBS with a final concentration of 10% was placed.
(§4) Thereafter, a medium containing a test compound serially diluted with DMSO, or DMSO, was added to each well of the plate, in which the cells had been seeded, and the obtained mixture was then cultured under conditions of 37° C. and 5% CO2 for 3 to 5 days. Cell Titer Glo reaction solution (Promega) was added to the culture, and the amount of luminescence was then measured using Envision plate reader (PerkinElmer). Since the amount of luminescence is in proportion to the concentration of adenosine triphosphate (ATP) in cells, the amount of luminescence was used as an indicator of the number of living cells. The growth inhibition percentage of the test compound in each concentration was calculated according to the following equation. Growth inhibition percentage (%)=(amount of luminescence in test compound−added well)/(amount of luminescence in DMSO−added well)×100
(§5) The growth inhibition percentage of the test compound in each concentration was plotted by performing a non-linear regression analysis [(log (inhibitor) vs. response—Variable slope (four parameters)], using Graphpad prism 5, and a 50% growth inhibitory concentration [GI50 (nmol/L)] was then calculated.

BRD4 BD2 = target: T3, BRD4 BD2 (Homo sapiens, UniProt O60885); assay: Binding assay, BRD4 BD2 to acetylated histone H4 Peptide-Biotin (EPIgeneous Binding Domain Kit B); details: for inhibition at 0.3 µM: test compound at 300 nmol/L, read-out: Binding inhibition percentage BRD4 BD2
T3 construct: BRD2 BD2, BRD3 BD2 and BRD4 BD2 (Cisbio); purchased Cisbio
Summary of the method: (§6)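 HTRF binding of GST-tagged BD2 (20 nmol/L working stock) to biotinylated acetyl-histone H4 peptide (250 nmol/L working stock), using streptavidin-XL665 and anti-GST Eu cryptate. Incubated 20 h at room temperature; 665/620 nm ratio versus DMSO gives % inhibition; IC50 by four-parameter fit, or % inhibition at 300 nmol/L.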

BRD3 BD2 = target: T4, BRD3 BD2 (Homo sapiens, UniProt Q15059); assay: Binding assay, BRD3 BD2 to acetylated histone H4 Peptide-Biotin (EPIgeneous Binding Domain Kit B); details: for inhibition at 0.3 µM: test compound at 300 nmol/L, read-out: Binding inhibition percentage BRD3 BD2
T4 construct: BRD2 BD2, BRD3 BD2 and BRD4 BD2 (Cisbio); purchased Cisbio
T4 sequence (Q15059 306-415 limits assumed): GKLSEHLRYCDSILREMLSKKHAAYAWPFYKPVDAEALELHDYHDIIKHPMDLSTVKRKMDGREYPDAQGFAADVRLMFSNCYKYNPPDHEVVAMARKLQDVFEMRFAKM
Summary of the method: as §6

[2] = test system: human undifferentiated thymoma cell line Ty-82; assay: Cell growth test (Cell Titer Glo) Ty-82; assay type: cell-based; details: TY82, 3 to 5 days
Source text: as §2, §3, §4, §5

BRD2 BD1 = target: T5, BRD2 BD1 (Homo sapiens, UniProt P25440); assay: Binding assay, BRD2 BD1 to acetylated histone H4 Peptide-Biotin (EPIgeneous Binding Domain Kit A); details: for inhibition at 0.3 µM: test compound at 300 nmol/L, read-out: Binding inhibition percentage BRD2 BD1
T5 construct: BRD2 BD1, BRD3 BD1 and BRD4 BD1 (Cisbio); purchased Cisbio
T5 sequence (P25440 74-180 limits assumed): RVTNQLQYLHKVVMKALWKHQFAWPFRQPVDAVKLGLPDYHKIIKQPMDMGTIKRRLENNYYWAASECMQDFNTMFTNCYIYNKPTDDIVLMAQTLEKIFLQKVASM
Summary of the method: as §1

BRD2 BD2 = target: T6, BRD2 BD2 (Homo sapiens, UniProt P25440); assay: Binding assay, BRD2 BD2 to acetylated histone H4 Peptide-Biotin (EPIgeneous Binding Domain Kit B); details: for inhibition at 0.3 µM: test compound at 300 nmol/L, read-out: Binding inhibition percentage BRD2 BD2
T6 construct: BRD2 BD2, BRD3 BD2 and BRD4 BD2 (Cisbio); purchased Cisbio
T6 sequence (P25440 344-453 limits assumed): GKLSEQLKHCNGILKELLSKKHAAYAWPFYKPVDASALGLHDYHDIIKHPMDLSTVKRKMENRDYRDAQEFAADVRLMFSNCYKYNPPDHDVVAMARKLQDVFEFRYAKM
Summary of the method: as §6

[3] = test system: human acute myeloid leukemia cell line MOLM-13; assay: Cell growth test (Cell Titer Glo) MOLM-13; assay type: cell-based; details: 3 to 5 days
Source text: as §2, §3, §4, §5

[4] = test system: MV4-11 subcutaneously transplanted tumor; assay: Medicinal effect test, MV4-11-subcutaneously-transplanted cancer-bearing mouse models, oral administration; assay type: in vivo; details: orally, once per day, 14 days, BALB/c nu/nu mice
Experimental: The human acute myeloid leukemia cell line MV4-11 (ATCC) was suspended in a mixture of RPMI-1640 medium and Matrigel (Corning), and the obtained mixture was then subcutaneously transplanted into 6-week-old female BALB/c nu/nu mice (CLEA Japan, Inc.). After confirming that the average tumor volume exceeded 200 mm^3, a test compound was dissolved in a solvent (a 0.5% methyl cellulose aqueous solution or water containing 1 equivalent of hydrochloric acid), and the obtained solution was then orally administered to the mice at a daily dose of 10 to 30 mg/kg, once per day, for 14 days. As a negative control, a solvent administration group involving administration of a 0.5% methyl cellulose aqueous solution was established. The tumor diameter was measured on a daily basis, and the tumor volume was calculated. The tumor volume was calculated by measuring the major axis and minor axis of the tumor and then applying the following equation. Tumor volume (mm^3)=[major axis (mm)×minor axis (mm)×minor axis (mm)]/2
T/C (%) was calculated from the average tumor volume of each group according to the following equation, and medicinal effects were then evaluated. T/C(%)=[1−(average tumor volume of drug administration group)/(average tumor volume of solvent administration group)]×100%

T1 sequence (Q15059 34-140 limits assumed): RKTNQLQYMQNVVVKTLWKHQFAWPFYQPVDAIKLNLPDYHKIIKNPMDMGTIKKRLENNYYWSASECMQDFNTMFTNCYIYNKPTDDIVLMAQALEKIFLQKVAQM

SMILES	inhibition at 0.3 µM (BRD3 BD1)	inhibition at 0.3 µM (BRD4 BD1)	GI50 [1]	inhibition at 0.3 µM (BRD4 BD2)	inhibition at 0.3 µM (BRD3 BD2)	GI50 [2]	inhibition at 0.3 µM (BRD2 BD1)	inhibition at 0.3 µM (BRD2 BD2)	GI50 [3]	T/C (%) ([4]; 30 mg/kg)	IC50 (BRD3 BD1)	IC50 (BRD4 BD1)	IC50 (BRD4 BD2)	IC50 (BRD3 BD2)	IC50 (BRD2 BD1)	IC50 (BRD2 BD2)	T/C (%) ([4]; 10 mg/kg)
CCn1c(=O)cc(C2CCN(C)CC2)c2cc(C(=O)N3CCCc4ccccc43)ccc21 [Example 11, 6-(3,4-dihydroquinolin-1 (2H)-ylcarbonyl)-1-ethyl-4-(1-methylpiperidin-4-yl)quinolin-2(1H)-one]	94%	94%	22 nM	83%	83%	23 nM	94%	79%	44 nM								
CCn1c(=O)cc(N2CCOCC2)c2cc(-n3c(-c4ccccc4)cn(C(C)C)c3=O)ccc21 [Example 247, 1-ethyl-4-(morpholin-4-yl)-6-(2-oxo-5-phenyl-3-(propan-2-yl)-2,3-dihydro-1H-imidazol-1-yl)quinolin-2(1H)-one]	93%	94%	16 nM	89%	91%	11 nM	83%	90%	43 nM	33%							
CCn1c(=O)cc(N2CCOCC2)c2cc(-n3c(-c4ccc(Cl)cc4)cn(C)c3=O)ccc21 [Example 246, 6-(5-(4-chlorophenyl)-3-methyl-2-oxo-2,3-dihydro-1H-imidazol-1-yl)-1-ethyl-4-(morpholin-4-yl)quinolin-2(1H)-one]	55%	67%	16 nM	84%	90%	17 nM	34%	82%	43 nM	33%	91 nM	40 nM	7 nM	12 nM	144 nM	18 nM	13%
